# Test results as given in the supplement of paper PMC10307832.
# Tests used:
# Assay in all cases: relative viability (nuclei count vs DMSO), 5 days (fraction); higher = more cells survive
# SK-LU-1 = test system: SK-LU-1
# In short: (§1)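 Relative viability divides the nuclei count in treated wells by that in vehicle wells. Lung cancer cell lines were seeded in 1536-well plates, dosed by pin tool the next day, and fixed and stained after 5 days in one step with final 0.05% Triton X-100, 1% formaldehyde and 1 ug/ml Hoechst. Dosing was a single drug or a fixed anchor-drug dose plus five library-drug doses (not always all listed) in √10 steps, and values are medians of duplicate plates imaged at 4×.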
# NCI-H1755 = test system: NCI-H1755
# In short: as §1
# NCI-H2342 = test system: NCI-H2342
# In short: as §1
# NCI-H460 = test system: NCI-H460
# In short: as §1
# A-427 = test system: A-427
# In short: as §1
# PC-3 [JPC-3] = test system: PC-3 [JPC-3]
# In short: as §1
# NCI-H522 = test system: NCI-H522
# In short: as §1
# NCI-H358 = test system: NCI-H358
# In short: as §1
# NCI-H1975 = test system: NCI-H1975
# In short: as §1
# HOP-62 = test system: HOP-62
# In short: as §1
# NCI-H1915 = test system: NCI-H1915
# In short: as §1
# NCI-H2126 = test system: NCI-H2126
# In short: as §1
# NCI-H1792 = test system: NCI-H1792
# In short: as §1
# HCC-15 = test system: HCC-15
# In short: as §1
# SW 1573 = test system: SW 1573
# In short: as §1
# NCI-H1734 = test system: NCI-H1734
# In short: as §1
# LC-2-ad = test system: LC-2-ad
# In short: as §1
# NCI-H2228 = test system: NCI-H2228
# In short: as §1
# NCI-H647 = test system: NCI-H647
# In short: as §1
# NCI-H2347 = test system: NCI-H2347
# In short: as §1
# LXF-289 = test system: LXF-289
# In short: as §1
# RERF-LC-KJ = test system: RERF-LC-KJ
# In short: as §1
# LOU-NH91 = test system: LOU-NH91
# In short: as §1
# HCC-78 = test system: HCC-78
# In short: as §1
compound,measurement,setting,value
C[C@@H]1CN(CC(=O)Nc2ccc3c(c2)Cc2cccc(-c4cc(=O)cc(N5CCOCC5)o4)c2S3)C[C@H](C)O1 + Cc1nc(Nc2ncc(C(=O)Nc3c(C)cccc3Cl)s2)cc(N2CCN(CCO)CC2)n1 [Dasatinib] (partner 0.075 µM),relative viability,SK-LU-1; first compound 0.04 µM,0.206
same,relative viability,SK-LU-1; first compound 0.1265 µM,0.203
same,relative viability,SK-LU-1; first compound 0.4 µM,0.171
same,relative viability,SK-LU-1; first compound 4 µM,0.15
same,relative viability,NCI-H1755; first compound 0.04 µM,0.455
same,relative viability,NCI-H1755; first compound 0.1265 µM,0.397
same,relative viability,NCI-H1755; first compound 0.4 µM,0.427
same,relative viability,NCI-H1755; first compound 4 µM,0.37
same,relative viability,NCI-H2342; first compound 0.04 µM,0.326
same,relative viability,NCI-H2342; first compound 0.1265 µM,0.292
same,relative viability,NCI-H2342; first compound 0.4 µM,0.29
same,relative viability,NCI-H2342; first compound 4 µM,0.306
same,relative viability,NCI-H460; first compound 0.04 µM,0.606
same,relative viability,NCI-H460; first compound 0.1265 µM,0.484
same,relative viability,NCI-H460; first compound 0.4 µM,0.427
same,relative viability,NCI-H460; first compound 4 µM,0.339
same,relative viability,A-427; first compound 0.04 µM,0.737
same,relative viability,A-427; first compound 0.1265 µM,0.719
same,relative viability,A-427; first compound 0.4 µM,0.729
same,relative viability,A-427; first compound 4 µM,0.669
same,relative viability,PC-3 [JPC-3]; first compound 0.04 µM,0.983
same,relative viability,PC-3 [JPC-3]; first compound 0.1265 µM,1.06
same,relative viability,PC-3 [JPC-3]; first compound 0.4 µM,1.01
same,relative viability,PC-3 [JPC-3]; first compound 4 µM,0.918
same,relative viability,NCI-H522; first compound 0.04 µM,0.775
same,relative viability,NCI-H522; first compound 0.1265 µM,0.773
same,relative viability,NCI-H522; first compound 0.4 µM,0.806
same,relative viability,NCI-H522; first compound 4 µM,0.828
same,relative viability,NCI-H358; first compound 0.04 µM,0.2
same,relative viability,NCI-H358; first compound 0.1265 µM,0.163
same,relative viability,NCI-H358; first compound 0.4 µM,0.144
same,relative viability,NCI-H358; first compound 4 µM,0.157
same,relative viability,NCI-H1975; first compound 0.04 µM,0.378
same,relative viability,NCI-H1975; first compound 0.1265 µM,0.39
same,relative viability,NCI-H1975; first compound 0.4 µM,0.368
same,relative viability,NCI-H1975; first compound 4 µM,0.249
same,relative viability,HOP-62; first compound 0.04 µM,0.664
same,relative viability,HOP-62; first compound 0.1265 µM,0.57
same,relative viability,HOP-62; first compound 0.4 µM,0.687
same,relative viability,HOP-62; first compound 4 µM,0.518
same,relative viability,NCI-H1915; first compound 0.04 µM,0.307
same,relative viability,NCI-H1915; first compound 0.1265 µM,0.308
same,relative viability,NCI-H1915; first compound 0.4 µM,0.319
same,relative viability,NCI-H1915; first compound 4 µM,0.278
same,relative viability,NCI-H2126; first compound 0.04 µM,0.607
same,relative viability,NCI-H2126; first compound 0.1265 µM,0.604
same,relative viability,NCI-H2126; first compound 0.4 µM,0.467
same,relative viability,NCI-H2126; first compound 4 µM,0.418
same,relative viability,NCI-H1792; first compound 0.04 µM,0.74
same,relative viability,NCI-H1792; first compound 0.1265 µM,0.684
same,relative viability,NCI-H1792; first compound 0.4 µM,0.788
same,relative viability,NCI-H1792; first compound 4 µM,0.72
same,relative viability,HCC-15; first compound 0.04 µM,0.659
same,relative viability,HCC-15; first compound 0.1265 µM,0.6
same,relative viability,HCC-15; first compound 0.4 µM,0.531
same,relative viability,HCC-15; first compound 4 µM,0.455
same,relative viability,SW 1573; first compound 0.04 µM,0.736
same,relative viability,SW 1573; first compound 0.1265 µM,0.613
same,relative viability,SW 1573; first compound 0.4 µM,0.515
same,relative viability,SW 1573; first compound 4 µM,0.355
same,relative viability,NCI-H1734; first compound 0.04 µM,0.475
same,relative viability,NCI-H1734; first compound 0.1265 µM,0.489
same,relative viability,NCI-H1734; first compound 0.4 µM,0.5
same,relative viability,NCI-H1734; first compound 4 µM,0.517
same,relative viability,LC-2-ad; first compound 0.04 µM,0.583
same,relative viability,LC-2-ad; first compound 0.1265 µM,0.55
same,relative viability,LC-2-ad; first compound 0.4 µM,0.487
same,relative viability,LC-2-ad; first compound 4 µM,0.492
same,relative viability,NCI-H2228; first compound 0.04 µM,0.595
same,relative viability,NCI-H2228; first compound 0.1265 µM,0.498
same,relative viability,NCI-H2228; first compound 0.4 µM,0.423
same,relative viability,NCI-H2228; first compound 4 µM,0.383
same,relative viability,NCI-H647; first compound 0.04 µM,0.236
same,relative viability,NCI-H647; first compound 0.1265 µM,0.159
same,relative viability,NCI-H647; first compound 0.4 µM,0.161
same,relative viability,NCI-H647; first compound 4 µM,0.146
same,relative viability,NCI-H2347; first compound 0.04 µM,0.329
same,relative viability,NCI-H2347; first compound 0.1265 µM,0.39
same,relative viability,NCI-H2347; first compound 0.4 µM,0.248
same,relative viability,NCI-H2347; first compound 4 µM,0.337
same,relative viability,LXF-289; first compound 0.04 µM,0.185
same,relative viability,LXF-289; first compound 0.1265 µM,0.223
same,relative viability,LXF-289; first compound 0.4 µM,0.203
same,relative viability,LXF-289; first compound 4 µM,0.232
same,relative viability,RERF-LC-KJ; first compound 0.04 µM,0.877
same,relative viability,RERF-LC-KJ; first compound 0.1265 µM,0.813
same,relative viability,RERF-LC-KJ; first compound 0.4 µM,0.782
same,relative viability,RERF-LC-KJ; first compound 4 µM,0.665
same,relative viability,LOU-NH91; first compound 0.04 µM,0.588
same,relative viability,LOU-NH91; first compound 0.1265 µM,0.51
same,relative viability,LOU-NH91; first compound 0.4 µM,0.476
same,relative viability,LOU-NH91; first compound 4 µM,0.492
same,relative viability,HCC-78; first compound 0.04 µM,0.366
same,relative viability,HCC-78; first compound 0.1265 µM,0.363
same,relative viability,HCC-78; first compound 0.4 µM,0.362
same,relative viability,HCC-78; first compound 4 µM,0.519
